Measurements from US8361487B1, “Ant controllers and method for application thereof” (BASF Aktiengesellschaft, priority 1999, dated 2013).

test system: Coptotermes formosanus Shiraki; test: Test Example 1: termite-killing test on treated filter paper; format: in vivo; conditions: mortality class; 1 ml of a 500 ppm solution on filter paper, seven days after inoculation, triplicate group of 10 insects
Description: A filter paper was spread in a glass dish having a diameter of 9 cm, onto which was dropped 1 ml of a 500 ppm solution of the ant controller of the present invention. Then, the filter paper was inoculated with Coptotermes formosanus Shiraki. Seven days after the inoculation, percentage of dead insects was investigated, from which mortality was calculated. The test was carried out with triplicate group of 10 insects.

Compound | Termite-killing effect
CC(C(=NNC(=S)Nc1ccc(OC(F)(F)F)cc1)c1ccccc1)c1ccccc1 (racemic) [Compound 65] | C (89-80)
N#Cc1ccc(CC(NNC(=O)Nc2ccc([S+]([O-])C(F)(F)F)cc2)c2cccc(C(F)(F)F)c2)cc1 (centres unmarked) [Compound 119] | A (100)
N#Cc1ccc(CN(N=CC(=O)Nc2ccc(Cl)cc2)c2cccc(C(F)(F)F)c2)cc1 [Compound 138] | A (100)
N#Cc1ccc(CC(=NNC(=O)Nc2ccc(S(=O)(=O)C(F)(F)F)cc2)c2cccc(Cl)c2)cc1 [Compound 23] | A (100)
N#Cc1ccc(CC(NNC(=O)Nc2ccc(OC(F)(F)F)cc2)c2cccc(C(F)(F)F)c2)cc1 (single isomer, unassigned) [Compound 118] | D (79-50)
O=C(NNC(Cc1ccccc1)c1ccccc1)Nc1ccc(Cl)cc1 (racemic) [Compound 84] | A (100)
N#Cc1ccc(CC(=NNC(=O)Nc2ccc(Cl)cc2)c2ccccc2)cc1 [Compound 5] | A (100)
N#Cc1ccc(CC(=NNC(=O)Nc2ccc([S+]([O-])C(F)(F)F)cc2)c2cccc(Cl)c2)cc1 (centres unmarked) [Compound 22] | B (99-90)
N#Cc1ccc(CC(=NNC(=O)Nc2ccc(Cl)cc2)c2cccc(Cl)c2)cc1 [Compound 17] | A (100)
N#Cc1ccc(CN(NCC(=O)Nc2ccc(Cl)cc2)c2cccc(Cl)c2)cc1 [Compound 151] | C (89-80)
CN(C(=O)C=NN(Cc1ccc(C#N)cc1)c1cccc(C(F)(F)F)c1)c1ccc(Cl)cc1 [Compound 141] | D (79-50)
O=C(NN=C(Cc1ccc(Cl)cc1)c1ccccc1)Nc1ccc(Cl)cc1 [Compound 3] | A (100)
N#Cc1ccc(CC(NNC(=O)Nc2ccc(OC(F)(F)F)cc2)c2cccc(Br)c2)cc1 (centres unmarked) [Compound 95] | A (100)
O=C(C=NN(Cc1ccc(Cl)cc1)c1ccccc1)Nc1ccc(OC(F)(F)F)cc1 [Compound 123] | A (100)
N#Cc1ccc(CC(=NNC(=O)Nc2ccc(Cl)cc2)c2cccc(I)c2)cc1 [Compound 36] | B (99-90)
CC(C(=NNC(=O)Nc1ccc(Br)cc1)c1ccccc1)c1ccccc1 (centres unmarked) [Compound 49] | C (89-80)
O=C(NNC(Cc1ccccc1[N+](=O)[O-])c1ccccc1)Nc1ccc(OC(F)(F)F)cc1 (centres unmarked) [Compound 113] | A (100)
N#Cc1ccc(CC(NNC(=S)Nc2ccc(OC(F)(F)F)cc2)c2cccc(C(F)(F)F)c2)cc1 (centres unmarked) [Compound 100] | A (100)
CC(C(=NNC(=O)Nc1ccc(OC(F)(F)F)cc1)c1ccccc1)c1ccccc1 (mixture of isomers) [Compound 50] | A (100)
N#Cc1ccc(CC(=NNC(=O)Nc2ccc(OC(F)(F)F)cc2)c2cccc(Br)c2)cc1 [Compound 27] | A (100)
CC(C(=NNC(=O)Nc1ccc(Cl)cc1)c1ccccc1)c1ccc(Cl)cc1 (centres unmarked) [Compound 53] | B (99-90)
O=C(C=NN(Cc1ccc([N+](=O)[O-])cc1)c1cccc(Cl)c1)Nc1ccc(OC(F)(F)F)cc1 [Compound 129] | A (100)
CN(C(=O)NN=C(Cc1ccccc1)c1ccccc1)c1ccc(Cl)cc1 [Compound 46] | A (100)
CC(C(=NNC(=O)Nc1ccc(OC(F)(F)F)cc1)c1ccccc1)c1ccc(Cl)cc1 (centres unmarked) [Compound 54] | A (100)
N#Cc1ccc(CN(N=CC(=O)Nc2ccc(OC(F)(F)F)cc2)c2cccc(Cl)c2)cc1 [Compound 131] | C (89-80)

Compound | Termite-killing effect
O=C(NN=C(Cc1ccccc1)c1cccc(Br)c1)Nc1ccc(OC(F)(F)F)cc1 [Compound 25] | D (79-50)
O=C(C=NN(Cc1ccc(Cl)cc1)c1cccc(Cl)c1)Nc1ccc(OC(F)(F)F)cc1 [Compound 127] | A (100)
CN(N=C(c1ccccc1)C(O)c1ccccc1)C(=O)Nc1ccc(OC(F)(F)F)cc1 (racemic) [Compound 75] | A (100)
O=C(NN=C(Cc1ccccc1)c1cccc(C(F)(F)F)c1)Nc1ccc(Cl)cc1 [Compound 42] | A (100)
CC(C)OC(C(=NNC(=O)Nc1ccc(Cl)cc1)c1ccccc1)c1ccccc1 (racemic) [Compound 68] | A (100)
N#Cc1ccc(CC(NNC(=O)Nc2ccc(OC(F)(F)F)cc2)c2ccccc2)cc1 (racemic) [Compound 87] | C (89-80)
N#Cc1ccc(CN(NCC(=O)Nc2ccc(OC(F)(F)F)cc2)c2ccccc2)cc1 [Compound 146] | D (79-50)
CN(C(=O)NN=C(Cc1ccccc1)c1ccccc1)c1ccc(OC(F)(F)F)cc1 [Compound 47] | A (100)
N#Cc1ccc(CN(N=CC(=O)Nc2ccc(SC(F)(F)F)cc2)c2cccc(Cl)c2)cc1 [Compound 132] | A (100)
N#Cc1ccc(CC(NNC(=S)Nc2ccc(OC(F)(F)F)cc2)c2cccc(Cl)c2)cc1 (centres unmarked) [Compound 99] | A (100)
O=C(NN=C(Cc1ccccc1)c1cccc(Br)c1)Nc1ccc(Cl)cc1 [Compound 24] | C (89-80)
N#Cc1ccc(CC(NNC(=O)Nc2ccc(SC(F)(F)F)cc2)c2cccc(C(F)(F)F)c2)cc1 (centres unmarked) [Compound 97] | A (100)
CC(=O)N(NC(=O)Nc1ccc(OC(F)(F)F)cc1)C(Cc1ccc(C#N)cc1)c1cccc(Cl)c1 (centres unmarked) [Compound 101] | A (100)
O=C(NN=C(c1ccccc1)C(OC(=O)c1ccccc1)c1ccccc1)Nc1ccc(OC(F)(F)F)cc1 (racemic) [Compound 73] | A (100)
CC(C(=NNC(=O)Nc1ccc(OC(F)(F)F)cc1)c1cccc(Cl)c1)c1ccc(C#N)cc1 (centres unmarked) [Compound 56] | A (100)
O=C(NN=C(c1ccccc1)C(O)c1ccccc1)Nc1ccc(OC(F)(F)F)cc1 (centres unmarked) [Compound 58] | A (100)
N#Cc1ccc(CC(=NNC(=S)Nc2ccc(OC(F)(F)F)cc2)c2ccccc2)cc1 [Compound 7] | A (100)
CC(C(=NNC(=O)Nc1ccc(Cl)cc1)c1cccc(Cl)c1)c1ccc(C#N)cc1 (centres unmarked) [Compound 55] | A (100)
O=C(NN=C(Cc1ccc([N+](=O)[O-])cc1)c1ccccc1)Nc1ccc(SC(F)(F)F)cc1 [Compound 14] | A (100)
N#Cc1ccc(CC(=NNC(=O)Nc2ccc([S+]([O-])C(F)(F)F)cc2)c2cccc(Cl)c2)cc1 (centres unmarked) [Compound 79] | B (99-90)
CC(C)COC(C(=NNC(=O)Nc1ccc(Cl)cc1)c1ccccc1)c1ccccc1 (racemic) [Compound 70] | A (100)
N#Cc1ccc(CC(c2cccc(Cl)c2)N(NC(=O)Nc2ccc(OC(F)(F)F)cc2)C(=O)c2ccccc2)cc1 (centres unmarked) [Compound 102] | A (100)
O=C(CNN(Cc1ccc(Cl)cc1)c1cccc(Cl)c1)Nc1ccc(OC(F)(F)F)cc1 [Compound 148] | A (100)
N#Cc1ccc(CC(=NNC(=O)Nc2ccc(SC(F)(F)F)cc2)c2cccc(C(F)(F)F)c2)cc1 [Compound 80] | A (100)
O=C(CNN(Cc1ccc([N+](=O)[O-])cc1)c1cccc(Cl)c1)Nc1ccc(Cl)cc1 [Compound 149] | A (100)
